Reference: patent publication US20230263822A1, “MODULATION OF FACTOR 11 EXPRESSION” (Ionis Pharmaceuticals, Inc., priority 2008, published 2023)

Experiments:
[1] = Tolerability in Sprague-Dawley rats: body weight and organ weight (Example 35); assay type: in vivo; settings: 50 mg/kg s.c. twice per week for 6 weeks; for Percent change: Body weight: percent change over the weights at the start of the study; for Percent change in organ weight: Kidney / Percent change in organ weight: Liver / Percent change in organ weight: Spleen: vs saline control, normalized to body weight
Source text: Urine samples were taken before the start of treatment.
The body weights are presented in Table 71 and are expressed as a percent change over the weights taken at the start of the study.

Factor 11 protein = Factor 11 protein in monkey plasma by sandwich ELISA (Example 46); assay type: in vivo, cynomolgus monkeys; settings: 25 mg/kg subcutaneously
Outline: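 Monkeys (2 male, 2 female per group) dosed s.c. with antisense oligonucleotide at 25 mg/kg, three times weekly in week 1 then twice weekly through week 8; PBS controls. Plasma Factor 11 measured by sandwich ELISA (1:50 dilution, OPD, 490 nm); expressed as % reduction versus PBS.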

human Factor 11 mRNA = test: Dose-dependent inhibition of human Factor 11 in HepB3 cells, electroporation (Example 7); assay type: cell-based; settings: for percent inhibition of human Factor 11 mRNA relative to untreated control cells: ~16 hours
Procedure: The gapmers were also transfected via electroporation and their dose dependent inhibition of human Factor 11 mRNA was measured. Cells were plated at a density of 20,000 cells per well and transfected via electroporation with 41.15 nM, 123.457 nM, 370.37 nM, 1111.11 nM, 3333.33 nM, and 10,000 nM concentrations of antisense oligonucleotide, as specified in Table 15. After a treatment period of approximately 16 hours, RNA was isolated from the cells and human Factor 11 mRNA levels were measured by quantitative real-time PCR. Human Factor 11 primer probe set RTS 2966 was used to measure mRNA levels. Factor 11 mRNA levels were adjusted according to total RNA content, as measured by RIBOGREEN. Results are presented as percent inhibition of human Factor 11, relative to untreated control cells.

Substance	Percent change: Body weight [1]	Percent change in organ weight: Kidney [1]	Percent change in organ weight: Liver [1]	Percent change in organ weight: Spleen [1]	Inhibition of Factor 11 protein relative to the PBS control (percentage reduction) (Factor 11 protein; Day 10, plasma)	Inhibition of Factor 11 protein relative to the PBS control (percentage reduction) (Factor 11 protein; Day 17, plasma)	Inhibition of Factor 11 protein relative to the PBS control (percentage reduction) (Factor 11 protein; Day 24, plasma)	Inhibition of Factor 11 protein relative to the PBS control (percentage reduction) (Factor 11 protein; Day 31, plasma)	Inhibition of Factor 11 protein relative to the PBS control (percentage reduction) (Factor 11 protein; Day 38, plasma)	Inhibition of Factor 11 protein relative to the PBS control (percentage reduction) (Factor 11 protein; Day 45, plasma)	Inhibition of Factor 11 protein relative to the PBS control (percentage reduction) (Factor 11 protein; Day 52, plasma)	Inhibition of Factor 11 protein relative to the PBS control (percentage reduction) (Factor 11 protein; Day 55, plasma)	Inhibition of Factor 11 protein relative to the PBS control (percentage reduction) (Factor 11 protein; Day −5, plasma)	IC50 (human Factor 11 mRNA)	percent inhibition of human Factor 11 mRNA relative to untreated control cells (human Factor 11 mRNA; 41.15 nM)	percent inhibition of human Factor 11 mRNA relative to untreated control cells (human Factor 11 mRNA; 123.457 nM)	percent inhibition of human Factor 11 mRNA relative to untreated control cells (human Factor 11 mRNA; 370.37 nM)	percent inhibition of human Factor 11 mRNA relative to untreated control cells (human Factor 11 mRNA; 1111.11 nM)	percent inhibition of human Factor 11 mRNA relative to untreated control cells (human Factor 11 mRNA; 3333.33 nM)	percent inhibition of human Factor 11 mRNA relative to untreated control cells (human Factor 11 mRNA; 10000 nM)	other results
416858 (antisense ACGGCATTGGTGCACAGTTT; 5-10-5 gapmer, further chemistry not given here) [compound 416858]	−21%	+5%	+8%	+187%	36%	49%	62%	68%	74%	79%	81%	81%	0%	0.3 µM	23%	45%	52%	64%	87%	92%	Inhibition of Factor 11 protein relative to the PBS control (percentage reduction) (Factor 11 protein; Day −14, plasma): 4%
416850 (antisense TGCACAGTTTCTGGCAGGCC; 5-10-5 gapmer, further chemistry not given here) [compound 416850]	−33%	+47%	+23%	+354%	20%	31%	38%	52%	51%	53%	53%	58%	0%	0.3 µM	26%	38%	51%	73%	90%	95%	Inhibition of Factor 11 protein relative to the PBS control (percentage reduction) (Factor 11 protein; Day −14, plasma): 0%
417002 (antisense GGTGCACAGTTTCTGGCAGG; 2-13-5 gapmer chemistry, further chemistry not given here) [compound 417002]	−29%	+63%	+27%	+446%										1.2 µM	19%	0%	31%	47%	86%	93%	
416892 (antisense GCCCTTCATGTCTAGGTCCA; 3-14-3 chimeric gapmer, further chemistry not given here) [compound 416892]	−39%	+32%	+38%	+151%										0.61 µM	9%	12%	28%	65%	89%	98%	
